Results: ChEMBL document CHEMBL1201862, “PubChem BioAssay data set” (2004)
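Results reflect a 48-hour exposure of cells in 96-well plates to compound at five concentrations. GI50 marks 50% less growth.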 Calls of active or inactive are those of the source. Cut-off read from the data, not from the text of the source: active = GI50 up to about 1.1 µM and inactive = higher.

How the values were obtained:
Test in all cases: inhibition of tumour cell growth, NCI panel, 48 h
HL-60 = test system: HL-60
SK-MEL-28 = test system: SK-MEL-28
HCT-15 = test system: HCT-15
SK-OV-3 = test system: SK-OV-3
SF-268 = test system: SF-268
U-251 = test system: U-251
OVCAR-3 = test system: OVCAR-3
MDA-MB-435 = test system: MDA-MB-435
SF-295 = test system: SF-295
UO-31 = test system: UO-31
OVCAR-8 = test system: OVCAR-8
SW-620 = test system: SW-620
KM12 = test system: KM12
A549 = test system: A549
EKVX = test system: EKVX
MCF7 = test system: MCF7
OVCAR-5 = test system: OVCAR-5
UACC-62 = test system: UACC-62
NCI-H226 = test system: NCI-H226
HOP-62 = test system: HOP-62

SMILES | GI50 (HL-60) | GI50 (SK-MEL-28) | GI50 (HCT-15) [µM] | GI50 (SK-OV-3) | GI50 (SF-268) | GI50 (U-251) | GI50 (OVCAR-3) | GI50 (MDA-MB-435) | GI50 (SF-295) | GI50 (UO-31) | GI50 (OVCAR-8) | GI50 (SW-620) | GI50 (KM12) | GI50 (A549) | GI50 (EKVX) | GI50 (MCF7) | GI50 (OVCAR-5) | GI50 (UACC-62) | GI50 (NCI-H226) | GI50 (HOP-62)
c1ccc(CN[C@]23C4C5CC6C7C5C2C7[C@@](NCc2ccccc2)(C64)N3Cc2ccccc2)cc1 (stereo partly drawn) | > 100 µM (inactive) | > 100 µM (inactive) | > 100 | > 100 µM (inactive) | > 100 µM (inactive) | > 100 µM (inactive) | > 100 µM (inactive) | > 100 µM (inactive) | > 100 µM (inactive) | > 100 µM (inactive) | > 100 µM (inactive) | > 100 µM (inactive) | > 100 µM (inactive) | > 100 µM (inactive) | > 100 µM (inactive) | > 100 µM (inactive) | > 100 µM (inactive) | > 100 µM (inactive) | > 100 µM (inactive) | > 100 µM (inactive)
COc1c2c(cc3c1OCO3)C13C=CC(OC)CC1N(CC3)C2.[O-][Cl+3]([O-])([O-])O (stereo not drawn) | 39.4 µM (inactive) | > 100 µM (inactive) | 28.4 | > 100 µM (inactive) | > 100 µM (inactive) | > 100 µM (inactive) | > 100 µM (inactive) | 34.3 µM (inactive) | > 100 µM (inactive) | > 100 µM (inactive) | > 100 µM (inactive) | > 100 µM (inactive) | 51.1 µM (inactive) | > 100 µM (inactive) | > 100 µM (inactive) | > 100 µM (inactive) | > 100 µM (inactive) | > 100 µM (inactive) | > 100 µM (inactive) | > 100 µM (inactive)
COc1ccc(Oc2nc(C#CC(C)(C)O)nc(Oc3ccc(OC)cc3)n2)cc1 | 1.07 µM (active) | 4.9 µM (inactive) | 1.34 | 19.2 µM (inactive) | 9.08 µM (inactive) | 3.82 µM (inactive) | 2.1 µM (inactive) | 4.44 µM (inactive) | 16.7 µM (inactive) | 1.55 µM (inactive) | 3.76 µM (inactive) | 1.84 µM (inactive) | 14 µM (inactive) | 15.1 µM (inactive) | 16 µM (inactive) | 1.51 µM (inactive) | 4.72 µM (inactive) | 11.6 µM (inactive) |  | 21.8 µM (inactive)
O=c1[nH]nc(NNc2ccccc2)c2nnn(C3CCCCC3)c12 | > 100 µM (inactive) | > 100 µM (inactive) | 96.2 |  |  | > 100 µM (inactive) | > 100 µM (inactive) | > 100 µM (inactive) | > 100 µM (inactive) | > 100 µM (inactive) | 88.1 µM (inactive) |  | > 100 µM (inactive) | > 100 µM (inactive) | > 100 µM (inactive) | > 100 µM (inactive) | > 100 µM (inactive) |  |  | > 100 µM (inactive)
COC(=O)C1(NC(=O)C(CC(=O)OCc2ccccc2)NC(=O)OCc2ccccc2)CCCCCCC1 (stereo not drawn) | 11.3 µM (inactive) | 8.69 µM (inactive) | 30.3 | 40 µM (inactive) | 44.7 µM (inactive) | 47.2 µM (inactive) | 60.1 µM (inactive) | 29.9 µM (inactive) | 31.6 µM (inactive) | 35.6 µM (inactive) | 26.4 µM (inactive) | 31.3 µM (inactive) | 48.3 µM (inactive) | 32.1 µM (inactive) | 45.4 µM (inactive) | 31.8 µM (inactive) | 62.7 µM (inactive) | 24.3 µM (inactive) | 40.3 µM (inactive) | > 100 µM (inactive)
CN1CCC2(CC1)C(=O)N(N1CCCCCC1)C(=O)N2c1ccccc1 | > 100 µM (inactive) | > 100 µM (inactive) | > 100 | > 100 µM (inactive) | > 100 µM (inactive) | > 100 µM (inactive) | > 100 µM (inactive) | > 100 µM (inactive) | > 100 µM (inactive) | > 100 µM (inactive) | 78 µM (inactive) | > 100 µM (inactive) | > 100 µM (inactive) | > 100 µM (inactive) | > 100 µM (inactive) | > 100 µM (inactive) | > 100 µM (inactive) | 96.6 µM (inactive) | > 100 µM (inactive) | > 100 µM (inactive)
S=c1[nH]nc(COc2ccc3c(c2)CCCC3)n1/N=C/c1ccc(Cl)cc1 | 18.2 µM (inactive) | 18.2 µM (inactive) | 20.4 | 18.1 µM (inactive) | 17.9 µM (inactive) | 19.1 µM (inactive) | 16 µM (inactive) | 19.3 µM (inactive) | 17.8 µM (inactive) | 17.1 µM (inactive) | 16.6 µM (inactive) | 17.4 µM (inactive) | 16.3 µM (inactive) | 18.7 µM (inactive) | 19.1 µM (inactive) | 11.8 µM (inactive) | 17.9 µM (inactive) | 19.1 µM (inactive) |  | 15.9 µM (inactive)
